Experimental findings from patent US5231091A, “Bis-arylphosphate ester antagonists of platelet activating factor” (priority 1992, dated 1993) are described below.

Structures can show the parent of a compound that is named as a salt.

One test has as its system PAF induced lethality. In words: PAF induced lethality in mice. As to conditions: I.P. 10 mg/kg; corrected for control lethality. The format is in vivo. The protocol:
PAF given I.V. to mice causes an immediate hypotensive shock leading to death in 1 hour or less. Compounds were given intraperitoneally or P.O. at various times before the PAF challenge. Animals alive after 2 hours were counted and the activity of test compounds expressed as % survival corrected for any control (saline treated) animals which survived the PAF challenge.

For a further test, the target named is T1, PAF receptor (Oryctolagus cuniculus, UniProt G1TEI7).
T1 construct: endogenous in cells; host or cells: rabbit platelets (male New Zealand White)
T1 sequence (G1TEI7 1-342): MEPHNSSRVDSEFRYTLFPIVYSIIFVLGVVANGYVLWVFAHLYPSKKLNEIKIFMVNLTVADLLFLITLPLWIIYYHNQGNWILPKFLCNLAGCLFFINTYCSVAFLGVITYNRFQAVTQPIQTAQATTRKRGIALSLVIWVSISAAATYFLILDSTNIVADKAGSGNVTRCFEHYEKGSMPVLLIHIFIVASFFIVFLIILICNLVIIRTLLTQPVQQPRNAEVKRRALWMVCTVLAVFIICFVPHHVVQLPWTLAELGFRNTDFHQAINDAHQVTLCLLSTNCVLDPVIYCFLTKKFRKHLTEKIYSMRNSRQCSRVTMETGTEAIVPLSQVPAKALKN
In words: Inhibition of PAF-induced aggregation in rabbit platelet rich plasma. The format is cell-based, rabbit (male New Zealand White). As to conditions: rabbit platelet rich plasma; PAF challenge 5E-8M; number of experiments in parentheses; read-out: IC50 inhibition of PAF-induced aggregation. The protocol: Test compounds were evaluated as PAF receptor antagonists in vitro by measuring inhibition of PAF (platelet activating factor) induced platelet aggregation. Platelet aggregation was measured by a modification of the method described in A. Wissner, et. al., J. Med. Chem., 27, 1174, 1984.
Approximately 120-240 ml of blood were collected by cardiac puncture from unanesthetized male New Zealand White rabbits (Whaley's Summit View Farms, Belvedere, N.J.) with the use of 3.2% sodium citrate anticoagulant (1 part of citrate/10 parts of blood). All syringes and pipets were plastic. The blood was gently mixed and immediately centrifuged at 800 rpm for 10-15 minutes at room temperature to recover the platelet rich plasma (PRP). Platelet poor plasma (PPP) was prepared by centrifuging PRP at 2800 rpm for 10 minutes at room temperature.
Dilutions (1:3000) of PRP in Isoton® diluent were made and platelet counts were determined on a Coulter Thrombocounter which was standardized with platelet reference standards (Interscience Platelet Control, Portland, Oreg.). PRP platelet counts were adjusted to approximately 400,000-500,000 platelets/μl by the addition of PPP.
L-PAF was obtained from Calbiochem. A stock solution of 1-2 E-3M was prepared in 10% ethanol in water or 100% methanol and serial working dilutions were made using phosphate buffered saline (PBS). 1-2 E-3M stock solutions of test compounds were prepared in 100% methanol and serially diluted in PBS. All solutions were made up in plastic tubes, stored on ice and protected from heat and light. Solutions were prepared fresh or frozen at -20° C. and used within 48 hours.
Incubation mixtures consisted of 400 μl PRP, 50 μl of PBS diluent or test compound and 50 μl of PAF agonist. More specifically, 400 μl of PRP was stabilized in a cuvette for 1-2 minutes at 37° C. in the aggregometer to achieve a stable baseline, then 50 μl of PBS or test compound, was added and incubated for 5 minutes before addition of the challenge concentration of PAF (final concentration of 5E-8M or 1E-7M, as determined from the dose response curve for PAF for that experiment). Aggregation was monitored for 5 minutes. Samples containing test compound or diluent were run simultaneously for comparison. Test compounds were initially evaluated at a screening concentration of 1E-5M.
The recording equipment consisted of a dual channel Chronolog aggregometer connected to a dual channel 10 MV full scale deflection Omniscribe chart recorder (Houston Instruments). […] The bead suspension was used to set the 0% light transmission mark and clear water was used to set the 100% light transmission mark. These limits defined a full scale deflection. The aggregation traces were analyzed by a digitizing method (C. Kohler and B. Zoltan, J. Pharm. Methods, 12, 113, 1984) with x, y coordinate data stored in a computer file. A suitable program computed parameters of interest such as the magnitude of aggregation.

As for `CCCCCCCCCCCCCCOc1cccc(OP(=O)([O-])Oc2cccc(C[n+]3csc(C)c3)c2)c1C(=O)OC` [3-[[3-[[Hydroxy[2-(methoxycarbonyl)-3-(tetradecyloxy)phenoxy]phosphinyl]oxy]phenyl]methyl]-5-methylthiazolium, hydroxide, inner salt], the “PAF induced lethality, % protection” value in the test with PAF induced lethality is on record as 0%. Further, on PAF receptor, the IC50 turned out to be 0.521 µM. On the same counts, the results for `CCCCCCCCCCCCOc1cc(C(C)(C)C)c(OP(=O)([O-])Oc2cccc(C[n+]3csc(C)c3)c2)cc1C(C)(C)C` [3-[[3-[[[2,5-Bis(1,1-dimethylethyl)-4-(dodecyloxy)phenoxy] hydroxyphosphinyl]oxy]phenyl]methyl]-5-methyl-thiazolium, hydroxide, inner salt] are 36% and 0.412 µM. On the same counts, the results for `CCCCCCCCCCCCCCOc1cccc(OP(=O)([O-])Oc2cccc(C[n+]3ccsc3)c2)c1C(=O)OC` [3-[[3-[[Hydroxy[2-(methoxycarbonyl)-3-(tetradecyloxy)-phenoxy]phosphinyl]oxy]phenyl]methyl]-thiazolium, hydroxide, inner salt] are 12% and 2.7 µM. On the same counts, the results for `CCCCCCCCCCCCCCCCOc1ccc(OP(=O)([O-])Oc2cccc(C[n+]3ccsc3)c2)cc1` [3-[[3-[[[4-(Hexadecyloxy)phenoxy]hydroxyphosphinyl]-oxy]phenyl]methyl]thiazolium, hydroxide, inner salt] are 96% and 3.28 µM. With `CCCCCCCCCCCCCCc1cccc(OP(=O)([O-])Oc2cccc(C[n+]3ccsc3)c2)c1` [3-[[3-[[Hydroxy(3-tetradecylphenoxy)phosphinyl]oxy]-phenyl]methyl]thiazolium, hydroxide, inner salt], at PAF receptor, the IC50 is 18.8 µM.

With `CCCCCCCCCCCCCCOc1cccc(OP(=O)([O-])Oc2cccc(C[n+]3ccc4ccccc4c3)c2)c1OC` [2-[[3-[[Hydroxy[2-methoxy-3-(tetradecyloxy)phenoxy]-phosphinyl]oxy]phenyl]methyl]-isoquinolinium, hydroxide, inner salt], at PAF receptor, the IC50 turned out to be 20 µM. Same read-out and setting: for `CCCCCCCCCCCCCCCCOc1cccc(OP(=O)([O-])Oc2cccc(C[n+]3ccccc3)c2)c1` [1-[[3-[[[3-(Hexadecyloxy)phenoxy]hydroxyphosphinyl]-oxy]phenyl]methyl]-pyridinium, hydroxide inner salt] the value was 15.4 µM; for `CCCCCCCCCCCCCCOc1cccc(OP(=O)([O-])Oc2cccc(C[n+]3cccc4ccccc43)c2)c1OC` [1-[[3-[[Hydroxy[2-methoxy-3-(tetradecyloxy)phenoxy]-phosphinyl]oxy]phenyl]methyl]-quinolinium, hydroxide, inner salt], 8 µM; for `CCCCCCCCCCCCCCCCOc1cccc(OP(=O)(O)Oc2cccc(C[n+]3cccc4ccccc43)c2)c1` [1-[[3-[[[3-(Hexadecyloxy)phenoxy]hydroxyphosphinyl]-oxy]phenyl]methyl]-quinolinium, hydroxide], 21.8 µM. On the same count and under the same terms, for `CCCCCCCCCCCCCCOc1cccc(OP(=O)([O-])Oc2cccc(C[n+]3ccsc3)c2)c1` [3-[[3-[[Hydroxy[3-(tetradecyloxy)phenoxy]phosphinyl]-oxy]phenyl]methyl]thiazolium, hydroxide, inner salt] the value was 6.15 µM; for `CCCCCCCCCCCCOc1cc(OP(=O)([O-])Oc2cccc(C[n+]3ccsc3)c2)c(C(C)(C)C)cc1C(C)(C)C` [3-[[3-[[[2,4-Bis(1,1-dimethylethyl)-5-(dodecyloxy)phenoxy]hydroxyphosphinyl]oxy]phenyl]methyl]thiazolium, hydroxide, inner salt], 30.2 µM.

Turning to `CCCCCCCCCCCCCCOc1cccc(OP(=O)([O-])Oc2cccc(C[n+]3cccc4ccccc43)c2)c1C(=O)OC` [1-[[3-Hydroxy[2-(methoxycarbonyl)-3-(tetradecyloxy)-phenoxy]phosphinyl]oxy]phenyl]methyl]quinolinium, hydroxide, inner salt], the IC50 on PAF receptor was 6.26 µM.

A word on the IC50: it is the concentration needed to halve the response being measured.
